The values that follow are results of earlier work, collected in US6406713B1 (priority 1987, dated 2002).

For one series, the system named is HTLV-III/LAV virus. The settings on record: HTLV-III/LAV infected cell cultures.
A further series concerns histoplasmosis. Particulars: mouse, in vivo.

As to `COC(=O)[C@H]1[C@@H]2C[C@@H](O[C@@H]3O[C@H](C)[C@@H](O)[C@H](N)[C@@H]3O)/C=C/C=C/C=C/C=C/C=C/C=C/C=C/[C@H](C)[C@@H](O)[C@@H](C)[C@H](C)OC(=O)C[C@H](O)C[C@H](O)CC[C@@H](O)[C@H](O)C[C@H](O)C[C@](O)(C[C@@H]1O)O2` [amphotericin B methyl ester], the “protection of target cells against cytopathic effects of the virus” value in the series on HTLV-III/LAV virus is “protected target cells against the cytopathic effects of the virus”. `C[C@@H]1[C@H](O)[C@@H](C)/C=C/C=C/C=C/C=C/C=C/C=C/C=C/[C@H](O[C@@H]2O[C@H](C)[C@@H](O)[C@H](N)[C@@H]2O)C[C@@H]2O[C@](O)(C[C@@H](O)C[C@@H](O)[C@H](O)CC[C@@H](O)C[C@@H](O)CC(=O)O[C@H]1C)C[C@H](O)[C@H]2C(=O)O` [amphotericin B]: the “protection of target cells against cytopathic effects of the virus” value in the series with HTLV-III/LAV virus was “protected target cells against the cytopathic effects of the virus”. Turning to liposomal-amphotericin B, in the series with histoplasmosis, the “serum and tissue distributions” value was “lower serum levels and higher liver and spleen concentrations”; the “toxicity versus free amphotericin B preparations” value is “less toxic”.
